From article PMC11245370, “3-Position Biaryl Endochin-like Quinolones with Enhanced Antimalarial Performance” (ACS Infectious Diseases, 2024)
pEC50: −log10 of the molar value. Several values for one entry are separate records, joined by “and”; a condition that tells them apart may be missing. Identical values can stand only once. One block for each compound: values may come before it.

Columns and labels:
[1] = tested on: P. yoelii blood-stage infection; details: mice
Procedure: (§1) On day 5, a drop of blood was taken from the tail, and a blood smear was prepared, fixed with methanol, and stained with Giemsa. The operator then examined the stained smear microscopically to determine percent parasitemia. […] In this model, animals were inoculated exactly as for the 4 day test on day 0; however, drug was administered only on day 1, whereas smears were made on day 5 and again weekly thereafter for animals that remained aparasitemic. Animals that remained aparasitemic on day 30 were scored as cures.
The P. yoelii 4 day test monitors suppression of patent infection in female CF1 mice. The test began with the inoculation (iv) of parasitized erythrocytes (3.5 × 10^4P. yoelli) (from a donor animal) on the first day of the experiment (D0). […] Initially, the 3-biaryl-ELQs were tested at doses of 0.0025, 0.005, 0.01, 0.03, 0.1, 0.3, 1.0, and 10 mg/kg/day, including a vehicle-only (PEG400) control. After completion of drug treatment, a blood sample was collected (by pricking the tail vein) for determination of parasite burden beginning on the day after the final dose (D5). Percent parasitemia was assessed by direct microscopic analysis of Giemsa-stained blood smears. […] Animals with observable parasitemia following the experiment were euthanized; animals cleared of parasites from the bloodstream were observed daily with assessment of parasitemia performed weekly until day 30, at which point the animals were scored as cured of infection. […] Nonlinear regression analysis was used for objective determination of ED50’s and ED90’s from the accumulated data as well as the nonrecrudescence dose (NRD). The 4 day test protocol was reviewed and approved by the local IACUC board at the Portland VA Medical Center. Experiments were performed with four mice per group to ensure statistical accuracy.

[2] = tested on: P. yoelii sporozoites (liver stage); assay: Causal prophylaxis, sporozoite challenge in mice; details: 1.0 mg/kg single oral dose 1 h after 10,000 P. yoelii sporozoites iv; followed 30 days
Procedure: For this study, mice were inoculated with 10,000 P. yoelii sporozoites via tail vein injections, and drug was administered by gavage an hour later and only once. We monitored for the presence of blood-stage parasites as a measure of liver-stage infection.
Mice were inoculated with 10,000 sporozoites via tail vein injection of CF1 mice treated with or without drug (dissolved in PEG400) 1 h after inoculation. […] Additional monitoring for blood-stage infection was continued for a 30 day period to confirm true causal prophylaxis against P. yoelii challenge. […] Testing involved the use of four animals per group for statistical accuracy. […] A minimum of 5000 red blood cells were examined to establish blood-stage infection. Blood smears were fixed with methanol, stained with Giemsa, and viewed under oil immersion at 1000× magnification under standard light microscopy.

[3] = tested on: P. yoelii blood-stage infection; assay: Single-dose cure of blood-stage murine malaria; type: in vivo, Plasmodium yoelii
Procedure: as §1
The effectiveness of selected 3-biaryl ELQs and prodrugs was assessed vs the blood-stage infection for single-dose cures. Mice were infected iv with 3.5 × 10^4P. yoelii infected RBCs as described for the 4 day test above. Drug administration occurred on the day after inoculation (day 1). Test agents were dissolved in PEG-400 and administered ig once. On the fifth day, blood films were prepared, and % parasitemia was assessed. Animals remaining parasite-free for 30 days after drug administration were considered cured. The initial dosing range was 0.25, 0.5, 1, 3, and 10 mg/kg, including a control. Experiments were performed with four mice per group to ensure statistical accuracy. The reported parameter for these studies is the lowest single dose that provides a cure to all four animals in the group.

[4] = Metabolic stability in liver microsomes, mouse; type: in vitro ADME; details: pooled mouse liver microsomes, pH 7.4
Procedure: (§2) […]. Samples were taken over the interval of 45 min and analyzed by LC–MS/MS for the presence of test compound. Ketanserin served as an internal standard for the metabolic rate of a drug with known intermediate stability. […].
(§3) The drug was incubated at 37 °C and 1 μM concentration in murine liver microsomes (Corning) for 45 min at a protein concentration of 0.5 mg/mL in potassium phosphate buffer at pH 7.4 containing 1.0 mM EDTA. The metabolic reaction was initiated by addition of NADPH and quenched with ice-cold acetonitrile at 0, 5, 15, 25, and 45 min.

[5] = Metabolic stability in liver microsomes, rat; type: in vitro ADME
[6] = Metabolic stability in liver microsomes, human; type: in vitro ADME
Procedure: as §2, §3

[7] = target: human liver cytochrome bc1 complex (Homo sapiens, UniProt P00156); assay: Human cytochrome bc1 assay (liver mitochondrial preparation)
[8] = oral gavage days 1-4, parasitemia day 5, prodrugs dosed on molar equivalency to parent
[9] = pH 7.4, predicted intrinsic clearance

Compound: CCOC(=O)OCOc1c(-c2ccc(Oc3ccc(OC(F)(F)F)cc3)cc2)c(C)nc2cc(OC)c(Cl)cc12 [ELQ-331]
- blood stage in vivo efficacy, 4 day Peters test results, NRD (nonrecrudescence dose) ([1]; oral gavage days 1-4, followed to day 30): 1.0 mg/kg/day
- blood stage in vivo efficacy, 4 day Peters test results, ED50 [1, 8]: 0.02 mg/kg/day
- blood stage in vivo efficacy, 4 day Peters test results, ED90 [1, 8]: 0.05 mg/kg/day
- liver stage in vivo, # mice protected/total [2]: completely protective and 4/4
- blood stage in vivo efficacy, single dose cure ([3]; lowest single oral dose curing all four mice, day 30): 3 mg/kg/day
- lowest fully protective single dose cure ([3]; single oral dose day 1, aparasitemic day 30, four mice, parent-drug equivalent): 3 mg/kg

- half-life at 1 μM ([4]; mouse liver microsomes 0.5 mg/mL, NADPH, 37 °C, 45 min, 1 μM): 19.1 min
- CLint scaled at 1 μM ([4]; mouse liver microsomes, predicted intrinsic clearance): 286 mL/min/kg
- CLint scaled at 1 μM [5, 9]: 172 mL/min/kg
- half-life at 1 μM ([5]; rat, pH 7.4): 14.4 min
- half-life at 1 μM ([6]; human, pH 7.4): 27.3 min
- CLint scaled at 1 μM [6, 9]: 63.7 mL/min/kg
Compound: O=C(c1ccc(F)cc1)C1CCN(CCn2c(=O)[nH]c3ccccc3c2=O)CC1 [ketanserin]

Compound: CCCCCC[C@H]1C(=O)O[C@H](C)[C@H](NC(=O)c2cccc(NC=O)c2O)C(=O)O[C@@H](C)[C@@H]1OC(=O)CC(C)C [Antimycin A, reference compound]
- pEC50 [7]: > 6.81
